Source: US20220117938A1, “COMBINATON THERAPY WITH A DON PRODRUG AND AN IMMUNE CHECKPOINT INHIBITOR” (DRACEN PHARMACEUTICALS, INC., priority 2019, published 2022)

Tested on: Cells
Assay: Cell viability, CTG luminescence, 72 h (Example 7, Experiment 1)
Assay type: cell-based
Protocol: Cells were cultured in the appropriate medium at 37° C. and 5% CO2 atmosphere. Cells were harvested by trypsinization, spun at 800 rpm for 5 min and resuspended in medium. The cell concentration was adjusted with medium and seeded at a cell density of 3000 cells in 90 μL per well in 96-well plates, and incubated overnight at 37° C. and 5% CO2. After 24 hours, the 1 mM test compound (either Compound 1 or DON) was successively diluted into 7 concentrations according to a three-fold gradient respectively, and 10 μl/well drug was added. The final concentrations were 100 μM, 33.33 μM, 11.11 μM, 3.7 μM, 1.24 μM, 0.41 μM, 0.14 μM, and 0.046 μM. The 100 μM Positive Control drug was successively diluted in 7 concentrations according to a three-fold gradient, and 10 μl/well drug was added. The final concentrations were 10 μM, 3.333 μM, 1.111 μM, 0.37 μM, 0.124 μM, 0.041 μM, 0.014 μM and 0.0046 μM. Cells were incubated for 72 h at 37° C. and 5% CO2. 100 μL CTG reagent was then added to each well. Plates were shaken for 2 min and placed 10 min at room temperature. Luminescence was recorded on Perkin Elmer Envision 2104 Multilabel Reader. IC50's were obtained by fitting curve using GraphPad Prism5 software. In all cases the treatment time was 72 h.

[1] = Homo sapiens, BT-474, 72 h, BT-474
[2] = Homo sapiens, BT-549, 72 h, BT-549
[3] = Homo sapiens, CAPAN-1, 72 h, Capan-1
[4] = Homo sapiens, HCC1395, 72 h, HCC1395
[5] = Homo sapiens, HCC1806, 72 h, HCC1806
[6] = Homo sapiens, HCC1937, 72 h, HCC1937
[7] = Homo sapiens, HCC1954, 72 h, HCC1954
[8] = Homo sapiens, HGC-27, 72 h, HGC-27
[9] = Homo sapiens, HL-60, 72 h, HL60
[10] = Homo sapiens, Huh-7, 72 h, HuH-7
[11] = Homo sapiens, KARPAS-299, 72 h, KARPAS-299
[12] = Homo sapiens, KATO III, KATO-III
[13] = Homo sapiens, LN-18, 72 h, LN-18
[14] = Homo sapiens, MDA-MB-231, 72 h, MDA-MB-231
[15] = Homo sapiens, MDA-MB-361, 72 h, MDA-MB-361
[16] = Homo sapiens, MKN-45, 72 h, MKN-45
[17] = Homo sapiens, MOLT-4, 72 h, MOLT-4
[18] = Homo sapiens, NCI-H23, 72 h, NCI-H23
[19] = Homo sapiens, NCI-H226, 72 h, NCI-H226
[20] = Homo sapiens, NCI-H358, 72 h, NCI-H358
[21] = Homo sapiens, NCI-H661, 72 h, NCI-H661
[22] = Homo sapiens, NCI-H929, 72 h, NCI-H929
[23] = Homo sapiens, NCI-H1299, 72 h, NCI-H1299
[24] = Homo sapiens, NCI-H1650, 72 h, NCI-H1650
[25] = Homo sapiens, OVCAR-3, 72 h, OVCAR-3
[26] = Homo sapiens, RPMI-7951, 72 h, RPMI-7951
[27] = Homo sapiens, SK-MES-1, 72 h, SK-MES-1
[28] = Homo sapiens, SNB-19, 72 h, SNB-19
[29] = Homo sapiens, SNU-449, 72 h, SNU-449
[30] = Homo sapiens, SW480, 72 h, SW480
[31] = Homo sapiens, U-937, 72 h, U-937
[32] = Homo sapiens, ZR-75-1, 72 h, ZR-75-1
[33] = Homo sapiens, ZR-75-30, 72 h, ZR-75-30

Q: How did the IC50 (AGS) turn out when `CC(=O)N[C@@H](Cc1c[nH]c2ccccc12)C(=O)N[C@@H](CCC(=O)C=[N+]=[N-])C(=O)OC(C)C` [Compound 1, Isopropyl (S)-2-((S)-2-acetamido-3-(1H-indol-3-yl)propanamido)-6-diazo-5-oxohexanoate] was run?
A: 19.9 µM

Q: What about the IC50 (C3A) of the same molecule?
A: 8.39 µM

Q: What about the IC50 (Homo sapiens, 143B) of the same molecule?
A: 2.44 µM

Q: What about the IC50 (Homo sapiens, 769-P) of the same molecule?
A: 2.08 µM

Q: And the IC50 [1]?
A: 9.8 µM

Q: What about the IC50 [2] of the same molecule?
A: 30.8 µM

Q: What about the IC50 [3] of the same molecule?
A: 29.3 µM

Q: And the IC50 (Homo sapiens, Daudi)?
A: 1.07 µM

Q: What about the IC50 [4] of the same molecule?
A: 59.8 µM

Q: And the IC50 [5]?
A: 3.86 µM

Q: What about the IC50 [6] of the same molecule?
A: 156 µM

Q: And the IC50 [7]?
A: 3.33 µM

Q: What about the IC50 [8] of the same molecule?
A: 13.3 µM

Q: What about the IC50 [9] of the same molecule?
A: 2.03 µM

Q: And the IC50 [10]?
A: 1.27 µM

Q: What about the IC50 (Homo sapiens, Jurkat) of the same molecule?
A: 0.656 µM

Q: And the IC50 [11]?
A: 0.636 µM

Q: What about the IC50 [12] of the same molecule?
A: 10.7 µM

Q: And the IC50 [13]?
A: 4.15 µM

Q: And the IC50 [14]?
A: 2.88 µM

Q: And the IC50 [15]?
A: 117 µM

Q: And the IC50 (Homo sapiens, MDA-MB-435S)?
A: 45.4 µM

Q: What about the IC50 [16] of the same molecule?
A: 1.65 µM

Q: What about the IC50 [17] of the same molecule?
A: 3.03 µM

Q: What about the IC50 (Homo sapiens, Malme-3M) of the same molecule?
A: 19.9 µM

Q: And the IC50 [18]?
A: 3.53 µM

Q: What about the IC50 [19] of the same molecule?
A: 14.5 µM

Q: And the IC50 (Homo sapiens, NCI-H322M)?
A: 49.1 µM

Q: And the IC50 [20]?
A: 9.61 µM

Q: What about the IC50 [21] of the same molecule?
A: 131 µM

Q: And the IC50 [22]?
A: 13.8 µM

Q: What about the IC50 [23] of the same molecule?
A: 9.2 µM

Q: And the IC50 [24]?
A: 6.61 µM

Q: And the IC50 [25]?
A: 34.1 µM

Q: What about the IC50 [26] of the same molecule?
A: 0.894 µM

Q: And the IC50 (Homo sapiens, Raji)?
A: 3.13 µM

Q: And the IC50 (Homo sapiens, SH-SY5Y)?
A: 9.1 µM

Q: What about the IC50 [27] of the same molecule?
A: 71.5 µM

Q: And the IC50 [28]?
A: 3.21 µM

Q: What about the IC50 [29] of the same molecule?
A: 38.6 µM

Q: What about the IC50 [30] of the same molecule?
A: 88.1 µM

Q: What about the IC50 (Homo sapiens, T98G) of the same molecule?
A: 3.39 µM

Q: What about the IC50 [31] of the same molecule?
A: 0.811 µM

Q: What about the IC50 [32] of the same molecule?
A: 137 µM

Q: What about the IC50 [33] of the same molecule?
A: 282 µM

Q: What about the IC50 (NAMALWA) of the same molecule?
A: 1.05 µM

Q: What about the IC50 (RKO) of the same molecule?
A: 3.64 µM

Q: And the IC50 (T84)?
A: 125 µM

Q: And the IC50 (TT)?
A: 77.1 µM

Q: What about the IC50 (U266B1) of the same molecule?
A: 0.451 µM

Q: What does the source list for `[N-]=[N+]=CC(=O)CC[C@H](N)C(=O)O` [DON, 6-Diazo-5-oxo-L-norleucine, reference compound]?
A: IC50 (AGS): 13.8 µM; IC50 (C3A): 2.4 µM; IC50 (Homo sapiens, 143B): 1.06 µM; IC50 (Homo sapiens, 769-P): 1.85 µM; IC50 [1]: 15.1 µM; IC50 [2]: 5.82 µM; IC50 [3]: 67.5 µM; IC50 (Homo sapiens, Daudi): 0.388 µM; IC50 [4]: 32.3 µM; IC50 [5]: 0.72 µM; IC50 [6]: 156 µM; IC50 [7]: 0.951 µM; IC50 [8]: 10 µM; IC50 [9]: 3.61 µM; IC50 [10]: 5.94 µM; IC50 (Homo sapiens, Jurkat): 0.368 µM; IC50 [11]: 0.309 µM; IC50 [12]: 2.96 µM; IC50 [13]: 2.71 µM; IC50 [14]: 1.78 µM; IC50 [15]: 235 µM; IC50 (Homo sapiens, MDA-MB-435S): 64.4 µM; IC50 [16]: 7.52 µM; IC50 [17]: 2.38 µM; IC50 (Homo sapiens, Malme-3M): 36.6 µM; IC50 [18]: 1.66 µM; IC50 [19]: 1.87 µM; IC50 (Homo sapiens, NCI-H322M): 4.78 µM; IC50 [20]: 0.974 µM; IC50 [21]: 70.6 µM; IC50 [22]: 11.8 µM; IC50 [23]: 1.82 µM; IC50 [24]: 1.89 µM; IC50 [25]: 31 µM; IC50 [26]: 3.47 µM; IC50 (Homo sapiens, Raji): 2.04 µM; IC50 (Homo sapiens, SH-SY5Y): 4.71 µM; IC50 [27]: 145 µM; IC50 [28]: 2.03 µM; IC50 [29]: 2.18 µM; IC50 [30]: 100 µM; IC50 (Homo sapiens, T98G): 1.38 µM; IC50 [31]: 0.566 µM; IC50 [32]: 101 µM; IC50 [33]: 982 µM; IC50 (NAMALWA): 0.333 µM; IC50 (RKO): 3.22 µM; IC50 (T84): 100 µM; IC50 (TT): 42.9 µM; IC50 (U266B1): 0.413 µM
